US20260217767A1, “NOVEL A4B7 THIOETHER PEPTIDE DIMER ANTAGONISTS” (Protagonist Therapeutics, Inc., priority 2014, published 2026)
Where two headings read alike, the source gives them in different places. *1 amine or outer side, *2 acyl side, *3 side chain or, on linkers, in order; H or OH if unused. Where a SMILES comes first, the peptide text is derived from it. Bridges are numbered along the chain shown (N, C = ends). [ ]: non-standard residue; d: D form. Phe(3-Me) = Cc1cccc(C[C@H](N)C(=O)O)c1; Phe(4-Me) = Cc1ccc(C[C@H](N)C(=O)O)cc1; Phe(2-Me) = Cc1ccccc1C[C@H](N)C(=O)O; NMeR = CN[C@@H](CCCNC(=N)N)C(=O)O; β3hE = N[C@@H](CCC(=O)O)CC(=O)O; X1 = O=C(c1ccccc1C[*:2])[*:1]; Pen = CC(C)(S)[C@H](N)C(=O)O

Key:
[1] = Simulated Intestinal Fluid (SIF) Stability Assay; type: in vitro ADME; details: porcine pancreatin, 37° C.
Protocol: Simulated Intestinal Fluid (SIF) Stability Assay
Studies were carried out in simulated intestinal fluid (SIF) to evaluate intestinal stability of the peptide molecules of the instant invention. To prepare the SIF reagent, blank FASSIF was prepared by dissolving 0.348 g NaOH, 3.954 g sodium phosphate monobasic monohydrate and 6.186 g NaCl in a final volume of 1 liter water (final pH=6.5). To this solution, 24 g porcine pancreatin (Sigma catalog P7545) was added and stirred for 30 minutes (final pancreatin concentration is 2.4%). The solution was filtered through a cheese cloth and a No. 1 Whatman filter, and 10 ml aliquots were stored at −70° C. To run the reaction, a 10 ml aliquot was thawed at 37° C., and 125 μl aliquots were removed and mixed with an equal volume of blank FASSIF. The peptide stock solution (10 mM in 100% DMSO) was diluted 75-fold in blank FASSIF. A 50 μl aliquot of the diluted peptide was combined with 125 μl pancreatin (2.4%) and 125 μl blank FASSIF to yield final concentrations of 1% pancreatin and 22 μM peptide. The reactions were incubated at 37° C., and at various time points 50 μl aliquots were removed and added to 200 μl of quench solution containing 50% acetonitrile, 50% methanol, 5% formic acid, and 1 μg/ml internal standard. The quenched samples were centrifuged at 10,000 rpm for 10 minutes, and the supernatants were analyzed by LCMS/MS. The percent remaining at each time point was calculated based on the peak area response ratio of test to compound to internal standard. Half-lives were calculated by fitting to a first-order exponential decay equation using GraphPad. A small sampling of the results of these studies is provided and discussed herein and in the accompanying figures.

[2] = molecular target: T1, RPMI 8866 cells (Homo sapiens, UniProt P13612+P26010); assay: α4β7-MAdCAM Cell Adhesion Assay; type: cell-based; details: read-out: Cell-Adhesion A4B7
T1 sequence (P13612 34-1032): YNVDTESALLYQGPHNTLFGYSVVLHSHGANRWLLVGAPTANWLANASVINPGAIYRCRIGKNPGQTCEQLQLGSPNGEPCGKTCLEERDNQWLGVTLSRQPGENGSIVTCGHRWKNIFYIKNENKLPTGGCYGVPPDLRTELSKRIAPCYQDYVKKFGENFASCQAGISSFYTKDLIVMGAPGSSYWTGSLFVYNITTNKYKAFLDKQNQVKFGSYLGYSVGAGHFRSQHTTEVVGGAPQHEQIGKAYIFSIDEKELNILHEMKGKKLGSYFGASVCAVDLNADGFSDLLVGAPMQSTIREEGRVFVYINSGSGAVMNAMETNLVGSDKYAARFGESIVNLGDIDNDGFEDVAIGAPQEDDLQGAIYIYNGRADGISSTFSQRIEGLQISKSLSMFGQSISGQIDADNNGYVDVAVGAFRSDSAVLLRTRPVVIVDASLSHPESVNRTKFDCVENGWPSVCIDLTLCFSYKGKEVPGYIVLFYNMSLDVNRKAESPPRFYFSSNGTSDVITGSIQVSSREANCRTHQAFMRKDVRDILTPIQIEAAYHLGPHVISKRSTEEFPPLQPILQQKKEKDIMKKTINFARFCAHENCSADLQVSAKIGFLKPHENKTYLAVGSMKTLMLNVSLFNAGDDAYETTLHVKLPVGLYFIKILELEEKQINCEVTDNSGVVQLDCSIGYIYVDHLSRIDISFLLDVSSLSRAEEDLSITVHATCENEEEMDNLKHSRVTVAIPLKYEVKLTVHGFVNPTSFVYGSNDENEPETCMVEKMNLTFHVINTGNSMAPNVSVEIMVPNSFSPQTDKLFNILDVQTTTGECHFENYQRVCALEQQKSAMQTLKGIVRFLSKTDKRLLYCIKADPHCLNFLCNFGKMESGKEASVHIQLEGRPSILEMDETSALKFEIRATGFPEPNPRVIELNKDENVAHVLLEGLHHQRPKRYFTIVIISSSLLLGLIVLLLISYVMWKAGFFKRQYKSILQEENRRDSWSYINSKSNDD
T1 sequence (P26010 20-798): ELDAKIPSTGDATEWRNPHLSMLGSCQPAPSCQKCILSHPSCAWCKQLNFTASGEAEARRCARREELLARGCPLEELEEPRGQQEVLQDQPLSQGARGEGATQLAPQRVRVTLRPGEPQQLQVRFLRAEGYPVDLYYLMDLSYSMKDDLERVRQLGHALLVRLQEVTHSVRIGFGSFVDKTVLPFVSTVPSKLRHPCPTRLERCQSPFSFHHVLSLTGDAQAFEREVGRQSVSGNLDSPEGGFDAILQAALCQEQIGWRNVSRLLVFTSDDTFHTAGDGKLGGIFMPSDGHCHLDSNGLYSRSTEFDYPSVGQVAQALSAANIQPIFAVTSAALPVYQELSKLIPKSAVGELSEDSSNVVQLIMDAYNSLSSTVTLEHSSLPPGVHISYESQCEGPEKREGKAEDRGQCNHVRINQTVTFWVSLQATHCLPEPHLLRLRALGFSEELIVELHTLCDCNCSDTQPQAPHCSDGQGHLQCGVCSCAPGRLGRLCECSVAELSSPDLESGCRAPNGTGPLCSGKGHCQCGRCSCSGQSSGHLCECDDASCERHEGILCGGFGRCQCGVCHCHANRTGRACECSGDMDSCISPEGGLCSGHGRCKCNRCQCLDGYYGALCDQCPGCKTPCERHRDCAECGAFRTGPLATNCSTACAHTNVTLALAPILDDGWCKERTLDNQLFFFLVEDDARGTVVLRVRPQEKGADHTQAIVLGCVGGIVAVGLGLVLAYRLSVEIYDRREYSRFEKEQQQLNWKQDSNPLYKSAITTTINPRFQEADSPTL
How it was run: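 Peptide inhibition of adhesion measured with MAdCAM-1/Fc chimera immobilised at 200 ng/well and MnCl2-activated (1 mM) RPMI 8866 cells, 30-45 min at 37° C. Adherent cells remaining after three washes detected by MTT reduction at 570 nm, corrected for no-cell wells, giving dose response.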

[3] = simulated gi fluid, monomers, Table 6
[4] = thioether monomer peptides, Table 6
[5] = simulated gi fluid, dimers, Table 7

SMILES	half-life [1, 3]	half-life [1, 5]	IC50 [2, 4]	half-life ([1]; pig, monomers, Table 6)	other results
CC(C)C[C@@H]1NC(=O)[C@H]([C@@H](C)O)NC(=O)[C@H](CC(=O)O)NC(=O)[C@H](CO)NC(=O)[C@H](CCCNC(=N)N)N(C)C(=O)c2ccccc2CSC(C)(C)[C@@H](C(=O)N[C@@H](Cc2ccccc2)C(=O)N[C@H](CCC(=O)O)C(=O)N[C@H](CCCCN)C(N)=O)NC1=O [compound 65] (HELM PEPTIDE1{[meR].S.D.T.L.[Pen].F.[dE].[dK].[am]}|CHEM1{[O=C(c1ccccc1C[*:2])[*:1]]}$PEPTIDE1,CHEM1,1:R1-1:R1|PEPTIDE1,CHEM1,6:R3-1:R2$$$V2.0)	> 3 h	–	–	–	–
Cc1cccc(C[C@H](NC(=O)[C@H]2NC(=O)[C@H](CC(C)C)NC(=O)[C@H]([C@@H](C)O)NC(=O)[C@H](CC(=O)O)NC(=O)[C@H](CO)NC(=O)[C@H](CCCNC(=N)N)N(C)C(=O)c3ccccc3CSC2(C)C)C(=O)N[C@@H](CCC(=O)O)CC(N)=O)c1 [compound 125] ([NMeR]SDTL[Pen][Phe(3-Me)][β3hE]-NH2; linker N-6 via X1)	–	–	< 25 nM	> 3 h	–
Cc1ccccc1C[C@H](NC(=O)[C@H]1NC(=O)[C@H](CC(C)C)NC(=O)[C@H]([C@@H](C)O)NC(=O)[C@H](CC(=O)O)NC(=O)[C@H](CO)NC(=O)[C@H](CCCNC(=N)N)N(C)C(=O)c2ccccc2CSC1(C)C)C(=O)N[C@@H](CCC(=O)O)CC(N)=O [compound 126] ([NMeR]SDTL[Pen][Phe(2-Me)][β3hE]-NH2; linker N-6 via X1)	–	–	25 to 100 nM	> 3 h	–
Cc1ccc(C[C@H](NC(=O)[C@H]2NC(=O)[C@H](CC(C)C)NC(=O)[C@H]([C@@H](C)O)NC(=O)[C@H](CC(=O)O)NC(=O)[C@H](CO)NC(=O)[C@H](CCCNC(=N)N)N(C)C(=O)c3ccccc3CSC2(C)C)C(=O)N[C@@H](CCC(=O)O)CC(N)=O)cc1 [compound 132] ([NMeR]SDTL[Pen][Phe(4-Me)][β3hE]-NH2; linker N-6 via X1)	–	–	< 25 nM	> 3 h	–
CC(C)C[C@@H]1NC(=O)[C@H]([C@@H](C)O)NC(=O)[C@H](CC(=O)O)NC(=O)[C@H](CO)NC(=O)[C@H](CCCNC(=N)N)N(C)C(=O)CCSCC[C@@H](C(=O)N[C@@H](Cc2c[nH]c3ccccc23)C(=O)N[C@H](CCCCNC(=O)COCC(=O)NCCCC[C@@H](NC(=O)[C@H](Cc2c[nH]c3ccccc23)NC(=O)[C@@H]2CCSCCC(=O)N(C)[C@@H](CCCNC(=N)N)C(=O)N[C@@H](CO)C(=O)N[C@@H](CC(=O)O)C(=O)N[C@@H]([C@@H](C)O)C(=O)N[C@@H](CC(C)C)C(=O)N2)C(N)=O)C(N)=O)NC1=O [compound 149]	–	–	–	–	IC50 ([2]; thioether peptide dimers, Table 7): > 1000 nM; half-life ([1]; pig, dimers, Table 7): < 0.333 h

Further lines, with some results ahead:

half-life [1, 3]	half-life [1, 5]	SMILES	IC50 [2, 4]	half-life ([1]; pig, monomers, Table 6)	other results
> 3 h	–	CC(C)C[C@@H]1NC(=O)[C@H]([C@@H](C)O)NC(=O)[C@H](CC(=O)O)NC(=O)[C@H](CO)NC(=O)[C@H](CCCNC(=N)N)N(C)C(=O)c2ccccc2CSC(C)(C)[C@@H](C(=O)N[C@@H](Cc2c[nH]c3ccccc23)C(=O)N[C@@H](Cc2ccc(O)cc2)C(=O)N(C)[C@@H](CCCCN)C(N)=O)NC1=O [compound 63] (HELM PEPTIDE1{[meR].S.D.T.L.[Pen].W.Y.[meK].[am]}|CHEM1{[O=C(c1ccccc1C[*:2])[*:1]]}$PEPTIDE1,CHEM1,1:R1-1:R1|PEPTIDE1,CHEM1,6:R3-1:R2$$$V2.0)	–	–	–
2.98 h	–	CCCC[C@@H]1NC(=O)[C@H]([C@@H](C)O)NC(=O)[C@H](CC(=O)O)NC(=O)[C@H](CO)NC(=O)[C@H](CCCNC(=N)N)N(C)C(=O)c2ccccc2CSC(C)(C)[C@@H](C(=O)N[C@@H](Cc2c[nH]c3ccccc23)C(=O)N[C@@H](CCC(=O)O)C(=O)N[C@H](CCCCN)C(N)=O)NC1=O [compound 64] (HELM PEPTIDE1{[meR].S.D.T.[Nle].[Pen].W.E.[dK].[am]}|CHEM1{[O=C(c1ccccc1C[*:2])[*:1]]}$PEPTIDE1,CHEM1,1:R1-1:R1|PEPTIDE1,CHEM1,6:R3-1:R2$$$V2.0)	–	–	–
–	< 0.333 h	CC(C)C[C@@H]1NC(=O)[C@H]([C@@H](C)O)NC(=O)[C@H](CC(=O)O)NC(=O)[C@H](CO)NC(=O)[C@H](CCCNC(=N)N)N(C)C(=O)c2ccccc2CSC(C)(C)[C@@H](C(=O)N[C@@H](Cc2c[nH]c3ccccc23)C(=O)N[C@@H](CCC(=O)O)C(=O)N[C@H](CCCCN)C(N)=O)NC1=O [compound 146] (HELM PEPTIDE1{[meR].S.D.T.L.[Pen].W.E.[dK].[am]}|CHEM1{[O=C(c1ccccc1C[*:2])[*:1]]}$PEPTIDE1,CHEM1,1:R1-1:R1|PEPTIDE1,CHEM1,6:R3-1:R2$$$V2.0)	–	–	–
–	> 3 h	CC(C)C[C@@H]1NC(=O)[C@H]([C@@H](C)O)NC(=O)[C@H](CC(=O)O)NC(=O)[C@H](CO)NC(=O)[C@H](CCCNC(=N)N)N(C)C(=O)c2ccccc2CSC(C)(C)[C@@H](C(=O)N[C@@H](Cc2c[nH]c3ccccc23)C(=O)N[C@@H](Cc2ccc(O)cc2)C(=O)N(C)[C@@H](CCCCN)C(N)=O)NC1=O [compound 153] (HELM PEPTIDE1{[meR].S.D.T.L.[Pen].W.Y.[meK].[am]}|CHEM1{[O=C(c1ccccc1C[*:2])[*:1]]}$PEPTIDE1,CHEM1,1:R1-1:R1|PEPTIDE1,CHEM1,6:R3-1:R2$$$V2.0)	–	–	–
–	< 0.333 h	CCCC[C@@H]1NC(=O)[C@H]([C@@H](C)O)NC(=O)[C@H](CC(=O)O)NC(=O)[C@H](CO)NC(=O)[C@H](CCCNC(=N)N)N(C)C(=O)c2ccccc2CSC(C)(C)[C@@H](C(=O)N[C@@H](Cc2c[nH]c3ccccc23)C(=O)N[C@@H](CCC(=O)O)C(=O)N[C@H](CCCCN)C(N)=O)NC1=O [compound 154] (HELM PEPTIDE1{[meR].S.D.T.[Nle].[Pen].W.E.[dK].[am]}|CHEM1{[O=C(c1ccccc1C[*:2])[*:1]]}$PEPTIDE1,CHEM1,1:R1-1:R1|PEPTIDE1,CHEM1,6:R3-1:R2$$$V2.0)	–	–	–
